In brackets after ≈: the same amount, converted by molar mass.
What was measured:
[1] = test system: Escherichia coli; test: Antibacterial activity against Escherichia coli K-12 BW25113 measured every 10 mins after 24 hrs in absence of biotin; format: functional
[2] = test system: Escherichia coli; test: Antibacterial activity against Escherichia coli K-12 BW25113 measured every 10 mins after 24 hrs in presence of biotin; format: functional
[3] = test system: Escherichia coli; test: Inhibition of Escherichia coli His-tagged bioA at 1 uM using KAPA as substrate after 20 mins in presence of SAM relative to control
[4] = Chemical stability assessed as compound decomposition in double distilled water at 40 ug/ml at pH 7.4 after 24 hrs by HPLC analysis; format: physicochemical; settings: buffer, pH 7.4, 24 h

Row | MIC [1] | MIC [2] | inhibition [3] | Stability [4] | Structure (SMILES)
1 | 8 mg/L (≈ 35.2 µM) | > 256 mg/L | 100% | – | NNC(=O)CSc1ccccc1[N+](=O)[O-]
2 | – | – | – | Unstable | O=C1C=CC(=O)N1Cc1cccs1
3 | 256 mg/L (≈ 2410 µM) | 256 mg/L | 20% | – | NNC(=O)CS
4 | 64 mg/L (≈ 533 µM) | 64 mg/L | 50% | – | CSCC(=O)NN
5 | 16 mg/L (≈ 73.8 µM) | > 256 mg/L | 63% | – | NNC(=O)CSc1ccccc1Cl
6 | 16 mg/L (≈ 81.5 µM) | > 256 mg/L | 81% | – | Cc1ccccc1SCC(=O)NN
7 | 128 mg/L (≈ 1730 µM) | 128 mg/L | 7% | – | CC(=O)NN
8 | – | – | – | Unstable | S=C1SCN(Cc2cccnc2)CN1Cc1cccnc1

Row | Structure (SMILES) | MIC [1] | MIC [2] | inhibition [3] | Stability [4]
9 | O=[N+]([O-])/C=C/c1cccc(F)c1 | – | – | – | Unstable
